# From ChEMBL document CHEMBL4425195, “Isolation of three new annonaceous acetogenins from Graviola fruit (Annona muricata) and their anti-proliferation on human prostate cancer cell PC-3” (Bioorg Med Chem Lett, 2016)
# Active and inactive are the calls of the source. No cut-off for these calls is given here.
# Test system: PC-3
# Test: Antiproliferative activity against human PC3 cells at 20 ug/ml after 24 hrs by MTT assay
# Type: functional, cell-based
row,Compound,Activity
1,CCCCCCCCCCCC/C=C/CC[C@H](O)[C@@H]1CC[C@@H]([C@@H](O)CCC(O)CCCCC[C@H](O)CC2=C[C@H](C)OC2=O)O1 (some centres not stated),Active
2,CCCCCCCCCC[C@@H](O)[C@@H](O)C[C@H](O)[C@@H]1CC[C@@H](CCCCCCCCCC[C@H](O)CC2=C[C@H](C)OC2=O)O1,Active
